In the NIST ThermoML archive (doi:10.1016/j.tca.2011.05.006):
± gives the expanded uncertainty stated by the source.

How the values were obtained:
[1] = 101 kPa, Liquid, Vibrating tube method
[2] = xn = mol fraction of the nth substance listed; settings: 101 kPa, Liquid, Vibrating tube method

CCCCO [butan-1-ol]
[1]
Settings	mass density [kg/m3]
293.15 K	809.78 ± 0.24
298.15 K	806.05 ± 0.24
303.15 K	802.03 ± 0.24
313.15 K	794.12 ± 0.24

CCCCO [butan-1-ol] + CC(C)NC(C)C
[2], x2 = 0
Settings	mass density [kg/m3]
293.15 K	809.78 ± 0.24
298.15 K	806.05 ± 0.24
303.15 K	802.03 ± 0.24
313.15 K	794.12 ± 0.24

CC(C)NC(C)C [diisopropylamine]
[1]
Settings	mass density [kg/m3]
293.15 K	720.89 ± 0.24
298.15 K	715.35 ± 0.24
303.15 K	710.23 ± 0.24
313.15 K	699.71 ± 0.25

CC(C)NC(C)C [diisopropylamine] + CCCCCO
mass density [kg/m3], [2]
Settings	293.15 K	298.15 K	303.15 K	313.15 K
x1 = 0.0815	809.89 ± 0.24	805.62 ± 0.24	801.64 ± 0.24	794.78 ± 0.24
x1 = 0.16	804.18 ± 0.24	799.78 ± 0.24	795.61 ± 0.24	788.52 ± 0.24
x1 = 0.2392	797.77 ± 0.24	793.23 ± 0.24	788.98 ± 0.24	780.98 ± 0.24
x1 = 0.35	787.88 ± 0.24	783.17 ± 0.24	778.74 ± 0.24	769.75 ± 0.24
x1 = 0.4401	779.23 ± 0.24	774.43 ± 0.24	769.93 ± 0.24	760.48 ± 0.24
x1 = 0.5597	767.21 ± 0.24	762.29 ± 0.24	757.69 ± 0.24	748.46 ± 0.24
x1 = 0.6498	757.9 ± 0.24	752.85 ± 0.24	748.14 ± 0.24	739.55 ± 0.24
x1 = 0.7356	748.9 ± 0.24	743.79 ± 0.24	738.95 ± 0.24	730.94 ± 0.24
x1 = 0.8497	736.82 ± 0.24	731.52 ± 0.24	726.57 ± 0.24	718.73 ± 0.24
x1 = 0.9379	727.48 ± 0.24	722.03 ± 0.24	716.97 ± 0.24	708.08 ± 0.25
x1 = 1	720.89 ± 0.24	715.35 ± 0.24	710.23 ± 0.24	699.71 ± 0.25

CC(C)NC(C)C [diisopropylamine] + CCCCO
mass density [kg/m3], [2]
Settings	293.15 K	298.15 K	303.15 K	313.15 K
x1 = 0.0815	804.64 ± 0.24	800.71 ± 0.24	796.89 ± 0.24	789.72 ± 0.24
x1 = 0.1611	798.64 ± 0.24	794.65 ± 0.24	790.84 ± 0.24	783.86 ± 0.24
x1 = 0.2404	792.1 ± 0.24	788 ± 0.24	784.11 ± 0.24	777.07 ± 0.24
x1 = 0.3496	782.52 ± 0.24	778.41 ± 0.24	774.3 ± 0.24	767.06 ± 0.24
x1 = 0.44	774.49 ± 0.24	770.21 ± 0.24	766.09 ± 0.24	758.54 ± 0.24
x1 = 0.56	763.71 ± 0.24	759.1 ± 0.24	754.95 ± 0.24	747.2 ± 0.24
x1 = 0.6499	755.59 ± 0.24	750.61 ± 0.24	746.56 ± 0.24	738.57 ± 0.24
x1 = 0.74	747.35 ± 0.24	741.97 ± 0.24	737.86 ± 0.24	729.62 ± 0.24
x1 = 0.8484	736.91 ± 0.24	731.98 ± 0.24	727 ± 0.24	718.21 ± 0.24
x1 = 0.9384	727.64 ± 0.24	721.96 ± 0.24	717.35 ± 0.25	707.61 ± 0.25
x1 = 1	720.89 ± 0.24	715.35 ± 0.24	710.23 ± 0.24	699.71 ± 0.25

CC(C)NC(C)C [diisopropylamine] + CCCO
mass density [kg/m3], [2]
Settings	293.15 K	298.15 K	303.15 K	313.15 K
x1 = 0.0813	796.38 ± 0.24	793.94 ± 0.24	791.19 ± 0.24	784.48 ± 0.24
x1 = 0.1608	791.55 ± 0.24	788.58 ± 0.24	785.66 ± 0.24	779.04 ± 0.24
x1 = 0.2398	785.63 ± 0.24	782.57 ± 0.24	779.21 ± 0.24	772.45 ± 0.24
x1 = 0.3497	777.13 ± 0.24	773.41 ± 0.24	769.55 ± 0.24	762.48 ± 0.24
x1 = 0.4398	769.26 ± 0.24	765.67 ± 0.24	761.55 ± 0.24	754.19 ± 0.24
x1 = 0.5546	760.03 ± 0.24	755.85 ± 0.24	751.48 ± 0.24	743.87 ± 0.24
x1 = 0.6487	752.32 ± 0.24	747.75 ± 0.24	743.28 ± 0.24	735.48 ± 0.24
x1 = 0.7383	744.72 ± 0.24	740.05 ± 0.24	735.49 ± 0.24	727.35 ± 0.24
x1 = 0.8491	735.16 ± 0.24	730.09 ± 0.24	725.47 ± 0.24	716.62 ± 0.24
x1 = 0.9395	726.79 ± 0.24	721.53 ± 0.24	716.61 ± 0.24	706.82 ± 0.25
x1 = 1	720.89 ± 0.24	715.35 ± 0.24	710.23 ± 0.24	699.71 ± 0.25

CC(C)NC(C)C [diisopropylamine] + CCO
mass density [kg/m3], [2]
Settings	293.15 K	298.15 K	303.15 K	313.15 K
x1 = 0.0808	788.65 ± 0.24	783.48 ± 0.24	777.89 ± 0.24	767.17 ± 0.24
x1 = 0.1601	784.61 ± 0.24	779.32 ± 0.24	773.64 ± 0.24	762.87 ± 0.24
x1 = 0.2386	779.98 ± 0.24	774.56 ± 0.24	768.86 ± 0.24	758.28 ± 0.24
x1 = 0.3497	772.63 ± 0.24	767.12 ± 0.24	761.5 ± 0.2	751.13 ± 0.24
x1 = 0.4411	766.01 ± 0.24	760.55 ± 0.24	755.15 ± 0.24	744.76 ± 0.24
x1 = 0.5532	757.4 ± 0.2	752.37 ± 0.24	747.04 ± 0.24	736.47 ± 0.24
x1 = 0.65	749.49 ± 0.24	744.83 ± 0.24	739.74 ± 0.24	728.89 ± 0.24
x1 = 0.7395	742.16 ± 0.24	737.7 ± 0.24	732.71 ± 0.24	721.68 ± 0.24
x1 = 0.8478	733.27 ± 0.24	728.73 ± 0.24	723.74 ± 0.24	712.63 ± 0.25
x1 = 0.9385	725.8 ± 0.2	720.86 ± 0.24	715.91 ± 0.25	704.95 ± 0.25
x1 = 1	720.89 ± 0.24	715.35 ± 0.24	710.23 ± 0.24	699.71 ± 0.25

CC(C)NC(C)C [diisopropylamine] + CO
mass density [kg/m3], [2]
Settings	293.15 K	298.15 K	303.15 K	313.15 K
x1 = 0.0808	789.98 ± 0.24	785.35 ± 0.24	779.68 ± 0.24	768.72 ± 0.24
x1 = 0.1599	786.75 ± 0.24	781.66 ± 0.24	776.01 ± 0.24	764.23 ± 0.24
x1 = 0.2399	782.33 ± 0.24	777.02 ± 0.24	771.2 ± 0.24	758.93 ± 0.24
x1 = 0.3477	774.9 ± 0.24	769.38 ± 0.24	763.6 ± 0.24	751.16 ± 0.24
x1 = 0.4444	767.44 ± 0.24	761.76 ± 0.24	756.06 ± 0.24	744.11 ± 0.24
x1 = 0.5563	757.92 ± 0.24	752.29 ± 0.24	746.8 ± 0.24	735.46 ± 0.24
x1 = 0.6507	749.84 ± 0.24	744.22 ± 0.24	738.78 ± 0.24	727.96 ± 0.24
x1 = 0.7388	742.2 ± 0.24	736.62 ± 0.24	731.3 ± 0.24	720.89 ± 0.24
x1 = 0.8482	732.94 ± 0.24	727.37 ± 0.24	722.19 ± 0.24	712.05 ± 0.25
x1 = 0.94	725.56 ± 0.24	719.98 ± 0.24	714.87 ± 0.24	704.62 ± 0.25
x1 = 1	720.89 ± 0.24	715.35 ± 0.24	710.23 ± 0.24	699.71 ± 0.25

CCO [ethanol]
[1]
Settings	mass density [kg/m3]
293.15 K	792.17 ± 0.24
298.15 K	786.71 ± 0.24
303.15 K	781.3 ± 0.24
313.15 K	771.14 ± 0.24

CCO [ethanol] + CC(C)NC(C)C
[2], x2 = 0
Settings	mass density [kg/m3]
293.15 K	792.17 ± 0.24
298.15 K	786.71 ± 0.24
303.15 K	781.3 ± 0.24
313.15 K	771.14 ± 0.24

CO [methanol]
[1]
Settings	mass density [kg/m3]
293.15 K	791.72 ± 0.24
298.15 K	787.35 ± 0.24
303.15 K	782.24 ± 0.24
313.15 K	772.73 ± 0.24

CO [methanol] + CC(C)NC(C)C
[2], x2 = 0
Settings	mass density [kg/m3]
293.15 K	791.72 ± 0.24
298.15 K	787.35 ± 0.24
303.15 K	782.24 ± 0.24
313.15 K	772.73 ± 0.24

CCCCCO [pentan-1-ol]
[1]
Settings	mass density [kg/m3]
293.15 K	814.8 ± 0.24
298.15 K	810.82 ± 0.24
303.15 K	807.07 ± 0.24
313.15 K	799.4 ± 0.24

CCCCCO [pentan-1-ol] + CC(C)NC(C)C
[2], x2 = 0
Settings	mass density [kg/m3]
293.15 K	814.8 ± 0.24
298.15 K	810.82 ± 0.24
303.15 K	807.07 ± 0.24
313.15 K	799.4 ± 0.24

CCCO [propan-1-ol]
[1]
Settings	mass density [kg/m3]
293.15 K	800.03 ± 0.24
298.15 K	797.81 ± 0.24
303.15 K	795.05 ± 0.24
313.15 K	787.95 ± 0.24

CCCO [propan-1-ol] + CC(C)NC(C)C
[2], x2 = 0
Settings	mass density [kg/m3]
293.15 K	800.03 ± 0.24
298.15 K	797.81 ± 0.24
303.15 K	795.05 ± 0.24
313.15 K	787.95 ± 0.24
